Data on nine compounds can be found in ChEMBL document CHEMBL1201862, “PubChem BioAssay data set” (2004).

For data set [1], the target named is Cytochrome P450 3A4 (Homo sapiens, UniProt P08684).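 Note: CYP3A4 tested as one member of a cytochrome P450 panel screen.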
Data set [2] concerns BJ. Nature of the data set: BJ-TERT fibroblast viability loss – cell-based, RAS-independent, luminescence, dose response (AID 1933). The format is functional. Conditions: Homo sapiens.
Data set [3] relates to BJ. The data set is described as follows: cells. Type of data set: functional, cell-based. As to conditions: Homo sapiens.
Data set [4] deals with BJ. Nature of the data set: BJ-TERT-LT-ST fibroblast viability loss – cell-based, RAS-independent, luminescence, dose response (AID 1935).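 Note: BJ fibroblasts immortalized with TERT plus LT and ST oncogenes.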 Type of data set: functional. As to conditions: Homo sapiens.
Data set [5] in a line: DRD fibroblast viability loss – cell-based, non-viral oncogenic, luminescence, dose response (AID 1934). The format is functional. As to conditions: Homo sapiens.
Data set [6] concerns Vero. Nature of the data set: cells. Type of data set: functional, cell-based. As to conditions: Chlorocebus sabaeus.
In data set [7] the test system is Vero. Nature of the data set: cells. The format is functional. Conditions: Chlorocebus sabaeus.
Data set [8] in a line: luciferase reporter signal suppression in cells – H4 neuroglioma cells, luminescence, dose response (AID 1990). Type of data set: functional, cell-based.
Data set [9] deals with Peroxisome proliferator-activated receptor gamma/Nuclear receptor coactivator 1 (Homo sapiens, UniProt P37231). The data set is described as follows: TR-FRET dose response biochemical High Throughput Screening assay for agonists of the steroid receptor coactivator 1 (SRC-1) recruitment by the peroxisome proliferator-activated receptor gamma (PPAR gamma): non-selective agonists. [Related pubchem assays (depositor defined):AID1300, AID1808, AID504735, AID631]. The format is protein assay.

Data set [10] in a line: Luminescence Cell-Based Dose Response HTS to Identify Inhibitors of 5'UTR Stem-Loop Driven Prion Protein mRNA Translation in H4 Neuroglioblastoma Cells. [Related pubchem assays: 1827 (Project Summary), 1813 (Primary HTS)]. Type of data set: functional.
In data set [11] the target is Peroxisome proliferator-activated receptor gamma/Nuclear receptor coactivator 3 (Homo sapiens, UniProt P37231). The data set is described as follows: TR-FRET dose response biochemical High Throughput Screening assay for agonists of the steroid receptor coactivator 3 (SRC-3) recruitment by the peroxisome proliferator-activated receptor gamma (PPAR gamma): non-selective agonists. [Related pubchem assays: 1301 (Confirmation screen.), 1048 (Primary screen.)]. Type of data set: functional. Background: In TR-FRET formats the signal depends on donor and acceptor labels being close together.

Data set [12] is described as follows: alpha-synuclein stem-loop luciferase translation blockers – H4 neuroglioma cells, luminescence, confirmation (AID 1988). The format is functional, cell-based.
The target in data set [13] is Peroxisome proliferator-activated receptor gamma/Nuclear receptor coactivator 2 (Homo sapiens, UniProt P37231). Nature of the data set: TR-FRET dose response biochemical High Throughput Screening assay for agonists of the steroid receptor coactivator 2 (SRC-2) recruitment by the peroxisome proliferator-activated receptor gamma (PPAR gamma): non-selective agonists. [Related pubchem assays: 1297, 1032 ]. The format is functional.

Data set [14] has as its target Cytochrome P450 2D6 (Homo sapiens, UniProt P10635).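 Note: CYP2D6 member of a cytochrome P450 panel assay.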
In data set [15] the target is T1, E3 ubiquitin-protein ligase XIAP (Homo sapiens, UniProt P98170). The data set is described as follows: Counter Screen using XIAP-Bir3 for Chemical Antagonists of Bir1/2 domains of IAP-family anti-apoptotic proteins. [Related pubchem assays (depositor defined):AID1018, AID1449, AID1514, AID1638, AID1749, AID1750, AID488957, AID488963]. Background: A counterscreen serves to expose hits that act by an unwanted route or on another target.
T1 sequence (P98170 whole entry): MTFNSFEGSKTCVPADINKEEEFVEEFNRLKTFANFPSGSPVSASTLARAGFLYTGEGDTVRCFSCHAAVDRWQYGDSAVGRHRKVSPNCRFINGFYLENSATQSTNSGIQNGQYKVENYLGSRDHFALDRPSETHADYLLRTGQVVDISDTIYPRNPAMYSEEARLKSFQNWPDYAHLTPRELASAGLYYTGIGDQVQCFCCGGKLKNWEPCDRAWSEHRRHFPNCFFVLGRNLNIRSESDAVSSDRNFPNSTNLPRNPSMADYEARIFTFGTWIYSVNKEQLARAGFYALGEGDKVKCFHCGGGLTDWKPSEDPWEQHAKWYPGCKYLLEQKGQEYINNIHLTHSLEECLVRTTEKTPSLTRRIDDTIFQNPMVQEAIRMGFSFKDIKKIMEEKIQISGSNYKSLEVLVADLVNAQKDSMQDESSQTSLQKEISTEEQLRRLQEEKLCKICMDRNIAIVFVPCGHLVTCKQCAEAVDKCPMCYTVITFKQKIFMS

Data set [16] deals with T1, E3 ubiquitin-protein ligase XIAP. The data set is described as follows: small molecules displacing peptide from XIAP – biochemical, IAP family, fluorescence polarization (AID 1018). Type of data set: functional. For orientation: In fluorescence polarisation assays a small probe gives low polarisation when free and higher when bound to something large.
Data set [17] concerns the target T2, Calpain-2 catalytic subunit (Sus scrofa, UniProt P43367).
T2 sequence (P43367 whole entry): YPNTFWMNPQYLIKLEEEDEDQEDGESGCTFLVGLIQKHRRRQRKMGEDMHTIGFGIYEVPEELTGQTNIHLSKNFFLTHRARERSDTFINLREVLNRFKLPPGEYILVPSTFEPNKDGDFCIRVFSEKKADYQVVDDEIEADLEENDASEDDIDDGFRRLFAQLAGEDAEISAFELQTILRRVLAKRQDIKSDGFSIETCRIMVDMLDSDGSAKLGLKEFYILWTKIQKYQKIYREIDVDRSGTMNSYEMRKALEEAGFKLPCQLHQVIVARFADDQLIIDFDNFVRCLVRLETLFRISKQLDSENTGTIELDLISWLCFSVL
The data set is described as follows: m-calpain protease blockers, concentration series – biochemical, fluorogenic peptide substrate, dose response (AID 1420). Type of data set: functional.

The nature of data set [18]: viability of uninfected HEp-2 cells – cell-based, HTS, cytotoxicity control for RSV inhibitor project, dose response (AID 2410). Conditions: human respiratory syncytial virus. Type of data set: functional.
Data set [19] has as its system HEK293. The data set is described as follows: EBV LMP1 TES2 canonical NF-kB signalling blockers – cell-based, HEK293, luciferase, cherry-pick, dose response (AID 588343). The format is functional. Conditions: Homo sapiens.
Data set [20] is described as follows: cells.
Data set [21] concerns the target T3, Tyrosine-protein phosphatase non-receptor type 7 (Homo sapiens, UniProt P35236).
T3 sequence (P35236 whole entry): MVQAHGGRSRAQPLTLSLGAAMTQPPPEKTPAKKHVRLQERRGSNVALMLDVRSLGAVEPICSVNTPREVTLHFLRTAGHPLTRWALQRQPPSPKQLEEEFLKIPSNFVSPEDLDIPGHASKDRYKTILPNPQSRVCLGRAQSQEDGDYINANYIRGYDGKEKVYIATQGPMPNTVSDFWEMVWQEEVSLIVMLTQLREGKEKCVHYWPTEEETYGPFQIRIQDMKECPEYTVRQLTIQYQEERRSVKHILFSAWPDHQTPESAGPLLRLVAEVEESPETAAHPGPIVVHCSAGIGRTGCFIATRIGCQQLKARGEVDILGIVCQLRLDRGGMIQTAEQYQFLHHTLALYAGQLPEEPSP
Nature of the data set: inhibition of hematopoietic tyrosine phosphatase HePTP – biochemical, set 2, SAR follow-up (AID 449736). Type of data set: functional.

The target in data set [22] is T4, Cysteine protease ATG4B (Homo sapiens, UniProt Q9Y4P1).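 Note: Fluorescence-based dose-response confirmation assay measuring inhibition of ATG4B activity.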
T4 sequence (Q9Y4P1 whole entry): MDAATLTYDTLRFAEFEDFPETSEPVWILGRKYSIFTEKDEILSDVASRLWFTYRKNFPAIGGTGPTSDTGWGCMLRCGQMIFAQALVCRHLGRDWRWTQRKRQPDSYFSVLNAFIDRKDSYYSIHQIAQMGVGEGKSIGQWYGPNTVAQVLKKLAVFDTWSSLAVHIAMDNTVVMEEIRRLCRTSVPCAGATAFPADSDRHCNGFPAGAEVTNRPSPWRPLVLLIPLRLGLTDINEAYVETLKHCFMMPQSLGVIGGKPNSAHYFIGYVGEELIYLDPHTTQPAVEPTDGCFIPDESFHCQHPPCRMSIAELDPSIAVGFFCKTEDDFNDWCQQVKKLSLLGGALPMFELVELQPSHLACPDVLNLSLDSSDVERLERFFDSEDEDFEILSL
Type of data set: functional.

The target in data set [23] is Phospholipase A2 (Homo sapiens, UniProt P04054). The format is functional.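 Note: confirmatory dose-response counterscreen on phospholipase A2, testing hits that came from an ultra-high-throughput screen for ATG4B inhibitors.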
Phospholipase A2, sequence (P04054 whole entry): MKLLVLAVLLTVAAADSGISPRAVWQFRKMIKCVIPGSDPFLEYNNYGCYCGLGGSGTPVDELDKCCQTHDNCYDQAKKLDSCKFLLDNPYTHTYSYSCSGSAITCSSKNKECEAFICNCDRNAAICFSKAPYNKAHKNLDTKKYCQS
The target in data set [24] is Voltage-dependent T-type calcium channel subunit alpha-1H (Homo sapiens, UniProt O95180). The format is functional.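 Note: channel activity triggered by adding a high calcium stimulation buffer.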
Voltage-dependent T-type calcium channel subunit alpha-1H, sequence (O95180 whole entry): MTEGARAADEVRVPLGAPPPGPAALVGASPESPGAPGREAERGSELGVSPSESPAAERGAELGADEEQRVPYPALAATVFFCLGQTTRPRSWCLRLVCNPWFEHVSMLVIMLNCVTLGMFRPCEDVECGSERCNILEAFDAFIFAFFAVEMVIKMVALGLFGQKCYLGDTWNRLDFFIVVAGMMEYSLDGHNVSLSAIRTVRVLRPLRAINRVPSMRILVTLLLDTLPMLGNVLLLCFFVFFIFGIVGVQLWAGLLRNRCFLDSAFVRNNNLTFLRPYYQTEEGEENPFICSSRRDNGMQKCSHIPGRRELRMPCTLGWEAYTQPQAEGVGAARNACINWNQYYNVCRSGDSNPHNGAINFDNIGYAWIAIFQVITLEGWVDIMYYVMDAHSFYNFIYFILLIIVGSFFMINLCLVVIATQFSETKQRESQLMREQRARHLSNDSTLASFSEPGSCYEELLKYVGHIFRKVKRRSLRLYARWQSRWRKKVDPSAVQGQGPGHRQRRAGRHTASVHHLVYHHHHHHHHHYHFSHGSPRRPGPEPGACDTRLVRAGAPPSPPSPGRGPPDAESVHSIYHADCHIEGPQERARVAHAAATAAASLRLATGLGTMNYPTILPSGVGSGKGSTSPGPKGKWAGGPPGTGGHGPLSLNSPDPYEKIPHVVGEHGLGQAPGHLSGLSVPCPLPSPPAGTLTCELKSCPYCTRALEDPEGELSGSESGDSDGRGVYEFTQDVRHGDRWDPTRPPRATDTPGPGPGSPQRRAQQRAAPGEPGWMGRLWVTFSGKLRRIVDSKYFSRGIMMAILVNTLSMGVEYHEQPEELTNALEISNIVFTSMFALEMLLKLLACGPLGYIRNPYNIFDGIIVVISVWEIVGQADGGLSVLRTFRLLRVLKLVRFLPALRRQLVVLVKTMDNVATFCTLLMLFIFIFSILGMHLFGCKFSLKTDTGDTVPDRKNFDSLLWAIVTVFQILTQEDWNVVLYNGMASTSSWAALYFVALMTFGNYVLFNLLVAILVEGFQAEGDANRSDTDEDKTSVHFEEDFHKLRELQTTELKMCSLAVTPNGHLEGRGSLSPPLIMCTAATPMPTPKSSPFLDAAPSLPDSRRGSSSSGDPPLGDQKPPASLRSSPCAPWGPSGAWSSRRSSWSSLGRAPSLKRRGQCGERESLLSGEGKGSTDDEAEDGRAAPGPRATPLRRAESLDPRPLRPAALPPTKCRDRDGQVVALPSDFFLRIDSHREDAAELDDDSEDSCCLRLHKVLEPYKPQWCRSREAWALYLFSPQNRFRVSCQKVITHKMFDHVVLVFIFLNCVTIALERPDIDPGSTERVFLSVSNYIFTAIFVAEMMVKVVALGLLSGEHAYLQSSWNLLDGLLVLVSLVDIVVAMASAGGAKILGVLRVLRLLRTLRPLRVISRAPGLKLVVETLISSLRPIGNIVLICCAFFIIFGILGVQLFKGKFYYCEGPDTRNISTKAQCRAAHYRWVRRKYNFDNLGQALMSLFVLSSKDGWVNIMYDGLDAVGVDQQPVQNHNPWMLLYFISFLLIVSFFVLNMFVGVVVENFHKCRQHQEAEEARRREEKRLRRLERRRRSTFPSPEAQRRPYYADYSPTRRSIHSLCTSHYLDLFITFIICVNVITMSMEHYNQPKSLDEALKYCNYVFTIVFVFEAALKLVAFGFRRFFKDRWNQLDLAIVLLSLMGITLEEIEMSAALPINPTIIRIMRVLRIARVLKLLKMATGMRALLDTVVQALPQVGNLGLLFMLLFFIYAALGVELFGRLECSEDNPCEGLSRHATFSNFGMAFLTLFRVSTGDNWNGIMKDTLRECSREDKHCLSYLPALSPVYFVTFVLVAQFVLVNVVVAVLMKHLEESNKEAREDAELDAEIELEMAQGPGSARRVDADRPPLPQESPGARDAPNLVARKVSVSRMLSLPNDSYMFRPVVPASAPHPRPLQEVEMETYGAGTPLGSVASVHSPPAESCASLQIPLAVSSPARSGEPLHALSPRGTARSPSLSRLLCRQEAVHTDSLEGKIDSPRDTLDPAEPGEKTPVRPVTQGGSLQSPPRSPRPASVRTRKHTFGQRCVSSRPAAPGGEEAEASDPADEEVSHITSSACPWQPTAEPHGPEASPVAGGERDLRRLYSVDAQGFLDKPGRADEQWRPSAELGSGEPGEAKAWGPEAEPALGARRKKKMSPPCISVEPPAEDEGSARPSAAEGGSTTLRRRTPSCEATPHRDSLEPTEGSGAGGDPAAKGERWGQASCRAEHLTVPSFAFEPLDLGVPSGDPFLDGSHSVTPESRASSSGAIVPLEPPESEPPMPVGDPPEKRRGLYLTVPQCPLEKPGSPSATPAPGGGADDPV
The target of data set [25] is T5, Cytochrome P450 1A2 (Homo sapiens, UniProt P05177).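 Note: PubChem cytochrome P450 panel assay, CYP1A2 panel member.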
T5 sequence (P05177 whole entry): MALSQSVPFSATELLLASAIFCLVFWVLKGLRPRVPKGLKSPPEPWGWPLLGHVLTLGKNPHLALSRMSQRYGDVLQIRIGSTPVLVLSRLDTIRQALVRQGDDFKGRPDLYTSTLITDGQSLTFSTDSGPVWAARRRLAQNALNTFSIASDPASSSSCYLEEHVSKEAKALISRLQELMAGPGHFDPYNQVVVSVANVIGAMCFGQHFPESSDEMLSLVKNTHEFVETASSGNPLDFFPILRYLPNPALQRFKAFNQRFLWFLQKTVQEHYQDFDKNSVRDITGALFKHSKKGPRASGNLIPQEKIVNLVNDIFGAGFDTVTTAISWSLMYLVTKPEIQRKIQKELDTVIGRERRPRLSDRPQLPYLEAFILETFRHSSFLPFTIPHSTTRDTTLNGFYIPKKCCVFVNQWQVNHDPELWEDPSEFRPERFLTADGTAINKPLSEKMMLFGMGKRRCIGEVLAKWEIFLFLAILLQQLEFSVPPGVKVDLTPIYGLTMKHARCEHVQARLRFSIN

The target in data set [26] is Cytochrome P450 2C9 (Homo sapiens, UniProt P11712).
Cytochrome P450 2C9, sequence (P11712 whole entry): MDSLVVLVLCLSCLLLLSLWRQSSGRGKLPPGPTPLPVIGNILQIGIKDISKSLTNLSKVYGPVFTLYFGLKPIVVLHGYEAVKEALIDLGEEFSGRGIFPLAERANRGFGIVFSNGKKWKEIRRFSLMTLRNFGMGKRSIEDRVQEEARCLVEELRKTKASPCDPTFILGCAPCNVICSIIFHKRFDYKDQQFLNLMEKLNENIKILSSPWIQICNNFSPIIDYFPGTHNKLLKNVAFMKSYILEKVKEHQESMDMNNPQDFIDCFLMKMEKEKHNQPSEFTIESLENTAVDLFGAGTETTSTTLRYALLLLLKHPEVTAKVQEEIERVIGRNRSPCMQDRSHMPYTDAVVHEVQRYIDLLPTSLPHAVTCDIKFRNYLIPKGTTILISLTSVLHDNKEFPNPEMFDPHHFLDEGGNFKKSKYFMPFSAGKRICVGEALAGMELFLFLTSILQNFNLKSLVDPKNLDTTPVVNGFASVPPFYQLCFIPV

Each structure is given as a SMILES string. Active and inactive are the calls of the source.

Cytochrome P450 3A4, sequence (P08684 whole entry): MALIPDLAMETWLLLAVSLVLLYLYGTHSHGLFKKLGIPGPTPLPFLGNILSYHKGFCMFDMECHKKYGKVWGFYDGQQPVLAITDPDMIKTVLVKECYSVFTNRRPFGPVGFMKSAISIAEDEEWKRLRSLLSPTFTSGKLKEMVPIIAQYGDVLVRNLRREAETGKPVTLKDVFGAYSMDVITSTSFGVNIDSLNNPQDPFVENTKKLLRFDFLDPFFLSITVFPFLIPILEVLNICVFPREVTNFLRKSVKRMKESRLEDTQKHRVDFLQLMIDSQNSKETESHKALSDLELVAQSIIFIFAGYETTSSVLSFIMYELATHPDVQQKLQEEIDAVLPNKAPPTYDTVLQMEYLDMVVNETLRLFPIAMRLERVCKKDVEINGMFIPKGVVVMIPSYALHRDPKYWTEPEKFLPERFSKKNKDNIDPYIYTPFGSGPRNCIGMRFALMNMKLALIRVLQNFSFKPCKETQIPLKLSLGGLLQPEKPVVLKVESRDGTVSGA
Cytochrome P450 2D6, sequence (P10635 whole entry): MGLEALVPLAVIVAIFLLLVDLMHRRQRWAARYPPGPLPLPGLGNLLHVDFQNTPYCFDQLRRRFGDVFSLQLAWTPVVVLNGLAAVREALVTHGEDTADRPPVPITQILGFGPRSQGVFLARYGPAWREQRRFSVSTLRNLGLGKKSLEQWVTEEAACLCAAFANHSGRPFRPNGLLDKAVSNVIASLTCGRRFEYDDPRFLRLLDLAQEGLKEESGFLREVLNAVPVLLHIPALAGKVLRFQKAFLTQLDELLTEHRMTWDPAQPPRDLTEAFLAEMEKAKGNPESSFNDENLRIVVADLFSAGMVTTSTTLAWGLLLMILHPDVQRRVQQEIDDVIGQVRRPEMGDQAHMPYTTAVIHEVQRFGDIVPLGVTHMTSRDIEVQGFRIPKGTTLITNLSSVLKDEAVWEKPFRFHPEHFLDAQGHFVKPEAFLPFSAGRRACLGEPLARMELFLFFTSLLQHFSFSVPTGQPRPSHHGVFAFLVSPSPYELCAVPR

Turning to `Clc1ccc(COn2c(-c3ccccc3)nc3ccccc32)cc1`, the AC50 (as a rule, the concentration at which the activity in the assay is half-maximal) in data set [1] is given as “inconclusive”.

`Cc1ccc(N(Cc2cc(O)nc3ccccc23)C(=O)CCl)cc1`: the EC50 (commonly the concentration at which the effect is half-maximal) was 1.19 µM (inconclusive) in data set [2], 8.7 µM (active) in [3], 8.14 µM (inconclusive) in data set [4] and 4.97 µM (inconclusive) in data set [5]. Further, the IC50 (as a rule, the concentration that gives 50% inhibition) in data set [6] is > 25 µM (active). Further, the CC50 (usually the concentration that lowers cell viability or growth by half) in [7] is 6.57 µM (active).

`Cc1ccccc1-c1nnc(S)n1/N=C/c1ccc(-c2ccccc2Br)o1`: the EC50 was 18.7 µM (active) in [8]; 29.4 µM (inactive) in [9]; 13.9 µM (active) in data set [10]; > 79.4 µM (not active) in data set [11]; 11.7 µM (active) in [12]; 28.6 µM (not active) in [13]. In addition, in data set [6], the IC50 is 2.91 µM (active).

Take `Cn1c(=O)n(C)c2cc([N+](=O)[O-])c(N3CCN(C(=O)c4ccccc4Cl)CC3)cc21`: the AC50 was 0.0355 µM (inconclusive) in data set [14] and “inconclusive” in [1].

Regarding `CCCCSc1nnc2c(n1)OC(C(=O)c1ccccc1)Nc1ccccc1-2` (stereo unspecified), the IC50 was > 100 µM (inactive) in data set [15], > 50 µM (not active) in data set [16] and > 50 µM (not active) in [17].

As for `C#CCn1c(S(=O)(=O)Cc2ccc(F)cc2)nc(-c2ccccc2)c1-c1ccccc1`, the CC50 was 3.47 µM (active) in data set [18] and 22.2 µM (active) in data set [7]. Moreover, the concentration at half-maximal activity (AC50) in data set [19] was 21.7 µM (active). The IC50 in data set [6] was 3.94 µM (active); in [20] it was 4.97 µM (active).

Turning to `Nc1c(C(=O)N2CCOCC2)sc(=S)n1-c1ccc(F)c(Cl)c1`, in [21], the IC50 was > 100 µM (inactive).

`CC1CCc2sc(C(=O)N3CCC(C(N)=O)CC3)cc2C1` (stereo unspecified): the IC50 in [22] is 13.2 µM (active); in data set [23], 9.91 µM (active).

As for `O=c1[nH]c2ccccc2n1CCCN1CCN(C(c2ccccc2)c2ccccc2)CC1` [OXATOMIDE], the EC50 in data set [24] was 5.15 µM (active). The AC50 is 25.1 µM (inconclusive) in data set [25], 7.94 µM (inconclusive) in data set [26] and “inconclusive” in data set [1].
